Data set [1] deals with H1975 (TKI-resistant) human lung adenocarcinoma xenograft tumors. Description: H1975 NSCLC xenograft tumor model in female Rag2 mice. On the procedure:
(§1) Rag2 mice bearing subcutaneous human lung adenocarcinoma xenograft tumors of either TKI-resistant (H1975) or TKI-sensitive (A549) origin were treated.
(§2) Two human NSCLC cell lines, A549 (TKI-sensitive) and H1975 (TKI-resistant), were used as xenograft tumor models in female Rag2 mice. The mice were 6 to 8 weeks of age and weighed 18-23 grams. 10 mice were used per group.
Rag2 mice bearing subcutaneous human lung adenocarcinoma xenograft tumors of either TKI-sensitive (A549) or TKI-resistant (H1975) origin were treated. […] Saline was used as control treatment. Disease progression was evaluated by tumor volume, clinical observations and body weight measurements. Blood samples were analyzed for CBC/differential analyses to assess myelosuppression or other changes in blood chemistry.
Cell number for inoculation was 5×10^6 cells for A549 cells in an injection volume of 50 μL per animal. For H1975 cells, cell number for inoculation was 2×10^6 cells in an injection volume of 50 μL per animal.
Treatment was initiated at average tumor volume of 100-150 mm^3.
Tumor growth delay (TGD) was calculated according to Equation (2): TGD=DTtx−DTcontrol (2).
For these calculations, TV is tumor volume, tx is treatment, int is initial, DT is doubling time for mean tumor volume from 200 mm^3 to 400 mm^3 for A549 or from 300 mm^3 to 600 mm^3 for H1975. MTV is mean tumor volume in mm^3 and TCR is tumor control ratio.
Disease progression was evaluated by tumor volume, clinical observations and body weight measurements.

In data set [2] the test system is A549 (TKI-sensitive) human lung adenocarcinoma xenograft tumors. Description: A549 NSCLC xenograft tumor model in female Rag2 mice. On the procedure: as §1, §2
Cisplatin was used in normal saline at a dose of 5 mg/kg. Administration was intravenous.
Administration was intraperitoneal.
Treatment was initiated at a tumor volume of 100 mm^3 to 150 mm^3.
The cells were started from a frozen vial of lab stock that were frozen down from the ATCC original vial and kept in liquid nitrogen. Cell cultures with a passage number of 3 to 10 and a confluence of 80%-90% were used. […] Cells were subcultured once weekly with a split ratio 1:3 to 1:8 and expanded.
For cell preparation and harvesting for subcutaneous (s.c.) inoculation, the cells were rinsed briefly once with Hanks Balanced Salt Solution without calcium or magnesium. […] The cells were allowed to sit at 37° C. for a few minutes. The cells were observed under an inverted microscope until the cell layer was dispersed, fresh medium was added, 50 μL of cell suspension was taken and mixed with trypan blue (1:1), and the cells were counted and cell viability assessed by using Cellometer Auto T4. The cells were centrifuged at 200×g for 7 minutes and the supernatant was aspirated. The cells were resuspended in growth medium to obtain a concentration of 100×10^6 cells/mL. For inoculation, 5×10^6 cells were used in an injection volume of 50 μL per mouse in 1:1 Matrigel.
On day 0, tumor cells were implanted subcutaneously into mice in a volume of 50 μL in Matrigel using a 28-gauge needle; injection of the tumor cells was in the back of the mice. Mice were randomly assigned to groups based on tumor volume.
For administration, 5 mL of 0.9% sodium chloride for injection, USP (saline) was added to yield a DAG solution with a concentration of 8 mg/mL.
Mice were injected with the required volume to administer the prescribed dose (mg/kg) to the animals based on individual mouse weights using a 28-gauge needle. The injection volume was 200 μL for a 20-g mouse. The mice were briefly (less than 30 seconds) restrained during intravenous injections. Dilation of the vein for intravenous injections was achieved by holding the animals under a heat lamp for a period of between 1-2 minutes.
Mice were individually weighed and injected intraperitoneally according to body weight at the specified injection concentration (see Table 1). The injection volume was based on 200 μL per 20-g mouse. The abdominal surface was wiped down with 70% isopropyl alcohol to clean the injection site.
Tumor growth was monitored by measuring tumor dimensions with calipers beginning on the first day of treatment. Tumor length and width measurements were obtained each Monday, Wednesday, and Friday. Tumor volumes were calculated according to the equation L×W^2/2 with the length (in mm) being defined as the longer axis of the tumor. Animals were weighed at the time of tumor measurement. Tumors were allowed to grow to a maximum of 800 mm^3 before termination.
All animals had blood collected by cardiac puncture at termination for CBC (complete blood count) with differentiation.
In particular, signs of ill-health were based on body weight loss, change in appetite, and behavioral signs such as altered gait, lethargy, and gross manifestations of stress.

In another data set the test system is RIF-1 cell-line. Description: Standard syngeneic mouse fibrosarcoma model, tumor growth delay. It is filed as in vivo. As to conditions: 4 mg/kg, single IP injection, RIF-1 in C3H mice; for Tumor Delay: vs untreated.
Data set [3] has as its system NSCLC cell lines other than H460. Kind of data set: Cytotoxicity in NSCLC tumor models, range over the cell lines other than H460. It is filed as cell-based, human. The following applies: NSCLC cell lines other than H460, single agents.
Another data set concerns H1299. Kind of data set: Cytotoxicity in NSCLC tumor models. The following applies: H1299, p53 null; N = 3. It is filed as cell-based, human. From the text: (§3) The cell lines include cell lines with wild-type p53, cell lines with mutant p53, and cell lines in which p53 has been knocked out (“null”). The properties of these cell lines are described in F. Bunz et al., “Requirement for p53 and p21 to Sustain G2 Arrest After DNA Damage,” Science 282: 1497-1501 (1998), incorporated herein by this reference.

For the next data set, the system named is H157. Kind of data set: Cytotoxicity in NSCLC tumor models. In kind it is cell-based, human. As to conditions: H157, p53 mu; N = 3.
Description: as §3

The test system of the next data set is H1975. Kind of data set: Cytotoxicity in NSCLC tumor models. In kind it is cell-based, human. The following applies: H1975, p53 mu; N = 3.
Description: as §3

In the next data set the test system is A549. Description: Cytotoxicity in NSCLC tumor models. The following applies: A549, p53 wt; N = 3. In kind it is cell-based, human.
Description: as §3

The subject of another data set is H460. Kind of data set: Cytotoxicity in NSCLC tumor models. The following applies: H460, p53 wt; N = 3. In kind it is cell-based, human.
Description: as §3

A further data set concerns H226. Kind of data set: Cytotoxicity in NSCLC tumor models. As to conditions: H226, p53 wt; N = 3. It is filed as cell-based, human.
Description: as §3

A further data set deals with H838. Description: Cytotoxicity in NSCLC tumor models. It is filed as cell-based, human. As to conditions: H838, p53 wt; N = 3.
Description: as §3

Another data set relates to SkLU1. Description: Cytotoxicity in NSCLC tumor models. The following applies: SkLU1, p53 mu; N = 3. In kind it is cell-based, human.
Description: as §3

The next data set deals with H2122. Description: Cytotoxicity in NSCLC tumor models. In kind it is cell-based, human. The following applies: H2122, p53 mu; N = 3.
Description: as §3

For data set [4] the following is noted: cited from earlier work.
[5] abbreviates: 5 mg/kg i.v. Q7D × 3, A549 model.
Where [6] appears, read: group 2, 5 mg/kg Q7D×3 i.v., A549 model, days post-inoculation.

In general, IC50 refers to the concentration that inhibits the measured activity by half. Low values mean greater potency in that assay, high ones weaker potency in that assay.

Entries after “also recorded” stand apart in the source; their conditions may differ.

As to `N.N.[Cl][Pt][Cl]` [Cisplatin, cisplatin, reference compound], the “MTV at Day 31” value in data set [1] (5 mg/kg i.v. Q7D × 3) worked out at 381 mm^3. In addition, the entries for the “Median survival” value in data set [1] (5 mg/kg i.v. Q7D × 3) and in [2] (setting [5]) were 31 days and 72 days, respectively. Besides, the body weight result in data set [1] (5 mg/kg i.v. Q7D × 3 (group 2)) was “Body weight loss was observed”. Further, the “TCR at Day 31” value in data set [1] (5 mg/kg i.v. Q7D × 3, tumor control ratio) is recorded as 0.83. For the same molecule, the “MTV at Day 68” value in data set [2] (setting [5]) is 460 mm^3. Moreover, in [2] (5 mg/kg i.v. Q7D × 3, A549 model, tumor control ratio), the “TCR at Day 68” value is given as 0.72. For the same molecule, the “TGD” value in [2] (5 mg/kg i.v. Q7D × 3, A549 model, tumor growth delay vs untreated control, doubling time 200 to 400 mm^3) came out at 4 days. Further, in [2] (5 mg/kg i.v. Q7D × 3, A549 model, tumor growth inhibition), the “TGI (%)” value stood at 29%. In data set [2] (5 mg/kg i.v. Q7D × 3, A549 tumor-bearing Rag2 mice), the “body weight / tolerability of the dosage” value is reported as “body weight loss was observed; also recorded: near the MTD”. Besides, the “number of animals remaining on study on day 70” value in data set [2] (group 2, 5 mg/kg Q7D×3 i.v., A549 model) is given as 6/10. In addition, the “day on which a mean tumor volume of 200 mm^3 was observed” value in [2] (setting [6]) amounted to 49 days. Also, the “day on which a mean tumor volume of 400 mm^3 was reached” value in [2] (setting [6]) came out at 66 days. Further, in data set [2] (group 2, 5 mg/kg Q7D×3 i.v., A549 model, mean tumor volume 200 to 400 mm^3), the doubling time stood at 17. Besides, in the data set with RIF-1 cell-line, the “Days to 4 × Median Tumor Size” value is 7.75 days. For the same molecule, the “Tumor Delay” value with RIF-1 cell-line is recorded as 1.45 days; in the data set with RIF-1 cell-line (listed as cisplatin), 1.5 days. The IC50 in data set [3] was 0.5 to 2.2 µM; in the data set on H1299 it was 1.2 µM; with H157, 2.16 µM; in the data set on H1975, 0.45 µM; in the data set on A549, 0.74 µM; with H460, 0.45 µM. The IC50 in the data set on H226 is 1.82 µM; in the data set with H838 it was 1.18 µM; in the data set on SkLU1, 0.89 µM; in the data set with H2122 it was 1.07 µM.

For the molecule `O=C1[O][Pt]2([NH][C@@H]3CCCC[C@H]3[NH]2)[O]C1=O` [Oxaliplatin, oxaliplatin], the concentration for half-maximal inhibition (IC50) is 0.6 to 2.6 µM in data set [3]; 0.64 µM in the data set on H1299; 2.04 µM in the data set with H157; 0.51 µM with H1975; 0.57 µM in the data set on A549; 0.36 µM in the data set with H460. In addition, the IC50 with H226 came to 0.82 µM; with H838, 2.63 µM; in the data set on SkLU1, 2.02 µM; in the data set on H2122, 1.42 µM.

On to `O[C@H]([C@H](O)[C@@H](O)CBr)[C@H](O)CBr` [dibromodulcitol], for which the “absorption by the oral route” value in data set [4] is “rapid and fairly complete”.

These data come from patent US11541027B2 (DelMar Pharmaceuticals, Inc., priority 2014, dated 2023).
